Data on eight molecules can be found in US12215104B2, “Anti-biofilm compounds” (UNIVERSITY OF LOUISVILLE RESEARCH FOUNDATION, INC., priority 2018, dated 2025).

Where two headings read alike, the source gives them in different places.

The subject of series [1] is P. gingivalis adherence to S. gordonii. Put plainly: Inhibition of P. gingivalis adherence to S. gordonii in two-species biofilm model. Type of series: cell-based, P. gingivalis ATCC33277; S. gordonii DL-1. An excerpt: (§1) To assess the functional activity of the click products, compounds 28-57 (Groups I and II) and 90-124 (Group III) were examined for inhibition of P. gingivalis adherence to S. gordonii using an established biofilm model system as described in the Section 4.2.1 [41]. For each compound tested, an IC50 value for adherence inhibition was approximated after quantifying the ratio of green to red fluorescence and these values are shown in Tables 2, 3 and 4. Compounds were classified as strong (IC50<10 μM), moderate (IC50=10-20 μM) or weak (IC50>20 μM) inhibitors of adherence. Twelve compounds were identified as strong inhibitors and an additional ten compounds were classified as moderate inhibitors. […] Compounds 54, 56, 93, 95, 100, 102, 103, and 115 were also tested to determine if they affect the growth of P. gingivalis or S. gordonii. […] The sulfoxide group does impart asymmetry to the molecule; however, the mixture of enantiomers, assuming the peracid oxidation was racemic, was not separated and bioassayed. The Group III active compounds (95-117) all contain the 1,3,5-trisubstituted-2,4,6-triazine modeled after the Katzenellenbogen rendering of an active motif whereby the key leucine residues which mimicked the VXXLL receptor box lie in a triangular arrangement. While the original iteration of the Katzenellenbogen VXXLL mimics were the hydrophobic 3,5-disubstituted-di-N-alkyamino-triazine motifs, we introduced the hydrophobic 2- and 4-(fluorophenyl)amino groups at positions 3 and 5 of the 2,4,6-triazine (See Compounds 102, 111, 115, 122).
(§2) P. gingivalis ATCC33277 was grown in reduced trypticase soy broth (Difco) supplemented with 0.5 percent yeast extract, 1 μg/mL menadione, and 5 μg/mL hemin. Twenty five milliliters of medium were reduced for 24 h under anaerobic conditions by equilibrating in an atmosphere consisting of 10% CO2, 10% H2, and 80% N2. Following equilibration, P. gingivalis was inoculated in the media and grown for 48 h at 37° C. under anaerobic conditions. S. gordonii DL-1 (1) was cultured aerobically without shaking in brain heart infusion (BHI) broth supplemented with 1 percent yeast extract for 16 hours at 37° C. For some compounds that inhibited P. gingivalis adherence to S. gordonii, we determined their affect the planktonic growth of P. gingivalis and S. gordonii. Broth cultures were grown as described above and compared to cultures grown in the absence of the compound. Cell density of each culture was determined by measuring the optical density at 600 nm (O.D.600 nm) after 24 h of growth. The percent growth inhibition/stimulation was calculated using the following equation: [(O.D.600 nm of the control/O.D.600 nm of the culture grown in the presence of compound)−1]×100.
Two species biofilms were formed essentially as previously described. To prepare bacterial cells for biofilm culture, 10 ml of an overnight S. gordonii culture was centrifuged at 5600 rpm for 5 min and the cell pellet was suspended in 1 mL sterile PBS. Subsequently, 20 μL of 5 mg/ml hexidium iodide (Molecular Probes) was added to the cell suspension and incubated for 15 min with gentle shaking at room temperature in the dark. The labeled cells were centrifuged as described above, washed with phosphate buffered saline (10 mM Na2HPO4, […], […], and 2.7 mM KCl, pH 7.2; [PBS]) and the cell pellet was suspended in PBS at a final O.D.600 nm of 0.8. Similarly, 10 mL of a 48 h culture of P. gingivalis was centrifuged at 5600 rpm for 15 min, the cell pellet was suspended in 1 mL PBS and 20 μl of 5(6)-carboxyfluorescein N-hydroxysuccinimide ester (4 mg/ml, Molecular Probes, Inc.) was added. After incubation for 30 min with gentle shaking at room temperature in the dark, the suspension was centrifuged and washed as described above and suspended in PBS at a final O.D.600 nm of 0.4. […]

In a further series the test system is P. gingivalis. Kind of series: Effect on planktonic growth of P. gingivalis. It counts as cell-based, P. gingivalis ATCC33277. The settings on record: incubated overnight in the presence of 40 μM compound.
From the text: as §1, §2

The next series has as its system S. gordonii. Kind of series: Effect on planktonic growth of S. gordonii. The settings on record: incubated overnight in the presence of 40 μM compound. Type of series: cell-based, S. gordonii DL-1.
From the text: as §1, §2

For series [2], the system named is pre-existing 3-species biofilm. Put plainly: Disruption of a pre-existing 3-species biofilm in vitro. It counts as cell-based. The settings on record: 20 μM.
In the next series the test system is gingival keratinocytes. Kind of series: Induction of apoptosis in gingival keratinocytes. Type of series: cell-based. The following applies: gingival keratinocytes.
[3] abbreviates: Table 3, Group II click products, concentration reducing green to red fluorescence ratio by 50%, approximated.
[4] abbreviates: read-out: IC50 for inhibition of adherence of P. gingivalis to S. gordonii.

On to `COc1ccccc1-c1cn(-c2ccc(S(=O)(=O)Cc3nc(-c4ccc(F)cc4)c(-c4ccc(F)cc4)o3)cc2)nn1` [Compound 54], for which the IC50 (usually the concentration needed to halve the response being measured) in series [1] (setting [3]) is 21.2 µM. For the same molecule, the “effect on growth of planktonic cultures of P. gingivalis” value (from here on “effect on growth … of P. gingivalis”) with P. gingivalis is listed as “No effect on growth”. Besides, the “effect on growth of planktonic cultures of S. gordonii” value (“effect on growth … of S. gordonii” below) in the series on S. gordonii was “No effect on growth”.

As to `O=S(=O)(Cc1nc(-c2ccc(Cl)cc2)c(-c2ccc(Cl)cc2)o1)c1ccc(-n2cc(-c3ccc(F)cc3)nn2)cc1` [Compound 56], in series [1] (setting [3]), the 50% inhibitory concentration (IC50) worked out at 6.3 µM. Further, the “effect on growth … of P. gingivalis” value with P. gingivalis is reported as “No effect on growth”. In addition, the “effect on growth … of S. gordonii” value in the series with S. gordonii is reported as “No effect on growth”.

For the molecule `CCN(CC)c1nc(-c2cn(-c3ccc(-c4nc(-c5ccc(F)cc5)c(-c5ccc(F)cc5)o4)cc3)nn2)nc(N(CC)CC)n1` [Compound 93], the half-maximal inhibitory concentration (IC50) in series [1] (Group III) was 9.4 µM. Also, in the series with P. gingivalis, the “effect on growth … of P. gingivalis” value was “No effect on growth”. Also, in the series on S. gordonii, the “effect on growth … of S. gordonii” value is recorded as “No effect on growth”.

`CCN(CC)c1nc(-c2cn(-c3ccc(-c4nc(-c5ccc(Cl)cc5)c(-c5ccc(Cl)cc5)o4)cc3)nn2)nc(N(CC)CC)n1` [Compound 95]: the concentration for half-maximal inhibition (IC50) in series [1] (Group III) was 3.7 µM; in series [1] (setting [4]), 2.3 to 5.3 µM. Also, the “effect on growth … of P. gingivalis” value in the series on P. gingivalis was “No effect on growth”. The “effect on growth … of S. gordonii” value in the series with S. gordonii was “No effect on growth”. The “disruption of pre-existing 3-species biofilm” value in series [2] (time treated 1 h) is listed as 16.47; in series [2] (time treated 2 h), 52.84; in series [2] (time treated 3 h), 81. Also, the early apoptosis turned out to be 5.02 in the series with gingival keratinocytes (5 μM), 4.89 with gingival keratinocytes (20 μM) and 3.80 in the series with gingival keratinocytes (40 μM). Besides, the late apoptosis in the series on gingival keratinocytes (5 μM) worked out at 4.27; with gingival keratinocytes (20 μM) it was 4.26; in the series on gingival keratinocytes (40 μM), 2.83. Also, the live cells was determined as 88.50 with gingival keratinocytes (5 μM), 88.35 in the series on gingival keratinocytes (20 μM) and 91.75 in the series on gingival keratinocytes (40 μM).

Consider `Fc1ccccc1Nc1nc(Nc2ccccc2F)nc(-c2cn(-c3cccc(-c4nc(-c5ccccc5)c(-c5ccccc5)o4)c3)nn2)n1` [Compound 100], for which the “effect on growth … of P. gingivalis” value with P. gingivalis was “No effect on growth”. Besides, the “effect on growth … of S. gordonii” value with S. gordonii is on record as “No effect on growth”.

In turn, `Fc1ccc(-c2nc(-c3cccc(-n4cc(-c5nc(Nc6ccccc6F)nc(Nc6ccccc6F)n5)nn4)c3)oc2-c2ccc(F)cc2)cc1` [Compound 102] gave an IC50 in series [1] (Group III) of 5 µM. In addition, in the series on P. gingivalis, the “effect on growth … of P. gingivalis” value was “No effect on growth”. Besides, the “effect on growth … of S. gordonii” value in the series with S. gordonii is reported as “No effect on growth”.

In turn, `Fc1ccc(-c2nc(-c3ccc(-n4cc(-c5nc(Nc6ccccc6F)nc(Nc6ccccc6F)n5)nn4)cc3)oc2-c2ccc(F)cc2)cc1` [Compound 103] displayed an IC50 in series [1] (Group III) of 12.3 µM. In addition, in the series with P. gingivalis, the “effect on growth … of P. gingivalis” value was “No effect on growth”. Also, the “effect on growth … of S. gordonii” value with S. gordonii is given as “No effect on growth”.

In the case of `Fc1ccc(Nc2nc(Nc3ccc(F)cc3)nc(-c3cn(-c4ccc(-c5nc(-c6ccc(F)cc6)c(-c6ccc(F)cc6)o5)cc4)nn3)n2)cc1` [Compound 115], the results for the IC50 in series [1] (Group III) and in series [1] (setting [4]) were 2.3 µM and 2.3 to 5.3 µM, respectively. Moreover, the “effect on growth … of P. gingivalis” value with P. gingivalis is recorded as “No effect on growth”. Besides, the “effect on growth … of S. gordonii” value in the series on S. gordonii is “No effect on growth”. In addition, the results for the “disruption of pre-existing 3-species biofilm” value in series [2] (time treated 1 h), in series [2] (time treated 2 h) and in series [2] (time treated 3 h) were 15.26, 45.62 and 76.06, respectively. Besides, the early apoptosis with gingival keratinocytes (5 μM) turned out to be 3.89; in the series with gingival keratinocytes (10 μM), 4.07; in the series with gingival keratinocytes (20 μM) it was 4.06. Also, the figures for the late apoptosis in the series with gingival keratinocytes (5 μM), with gingival keratinocytes (10 μM) and in the series with gingival keratinocytes (20 μM) were 4.21, 2.47 and 2.80, respectively. For the same molecule, the live cells with gingival keratinocytes (5 μM) came out at 87.85; in the series on gingival keratinocytes (10 μM), 91.25; in the series with gingival keratinocytes (20 μM) it was 91.20.
